# According to article PMC4681344, “Selective targeting of the BRG/PB1 bromodomains impairs embryonic and trophoblast stem cell maintenance” (Science Advances, 2015):
# Key:
# [1] = test system: embryonic stem cells (CRG8 ESCs); experiment: ESC stemness and differentiation (microscopy, qRT-PCR); format: cell-based
# Description: CRG8 ESCs were maintained in serum-containing media supplemented with LIF (1000 U/ml; ESGRO, ESG1106) on feeder-free gelatin-coated wells. ESC culture media contained Dulbecco’s modified Eagle’s medium/knockout (Invitrogen), 15% ES-qualified fetal bovine serum (Invitrogen), 1% penicillin-streptomycin (Lonza, DE17-602E), 1% L-glutamine (Lonza, BE17-605E), 1% sodium pyruvate (Invitrogen, 11360), 1% β-mercaptoethanol, and 1% nonessential amino acids (Invitrogen, 11140). Differentiation of ESCs was induced in the presence of retinoic acid (Sigma, R2625) by withdrawal of LIF supplementation.
# qRT-PCR ESC samples were collected by culturing ESC in stemness conditions in the presence of 1 μM PF1-3 or control compound for 1 or 8 days. ESC-differentiated samples were collected by treating the cells with PF1-3 or control compound 24 hours before differentiation induction. RNA was isolated using RNeasy Mini Kit (Qiagen, 74106) following the manufacturer’s instructions. At least two samples were collected for each group, and each qRT-PCR was run in triplicates. The qRT-PCR data were normalized against the housekeeping genes Gapdh, Ppia, and Hprt and expressed against control compound–treated ESC in stemness conditions. A list of primers is compiled in tables S5 and S6.
# [2] = test system: H3K27me3 at Brg1 and Stat3 target genes in ESCs; experiment: ChIP of H3K27me3 in ESCs; format: cell-based; settings: promoters and TSSs, vs PFI-3oMet
# Experimental: ChIP experiments were carried out with Covaris truChIP chromatin shearing reagent according to the manufacturer’s instructions with certain modifications. ESCs were fixed on-plate with 1% formaldehyde in phosphate-buffered saline for 5 min. Cells (10 million) were resuspended in 1 ml of shearing buffer and sonicated (Covaris S220) for 200 cycles per burst, 140 W peak power, 5% duty factor for 15 min in 1-ml Covaris tubes. The supernatant was then diluted to a protein concentration of 1.7 mg ml^−1, and 350 to 500 μg of protein were used for each immunoprecipitation reaction with anti-H3K27me3 (pab-069-050, Diagenode). The targeted gene fragments were amplified with primers used by Ho et al. ([27]).
# supercoiled pBR322 DNA = experiment: DNA unwinding assay; settings: 1, 5, or 10 μM
# Experimental: DNA incubated with DMSO (Sigma-Aldrich; D8418) in the presence or absence of the enzyme was run as control. After extraction by butanol (Sigma-Aldrich; 281549) and chloroform/isoamyl alcohol 24:1 (Sigma-Aldrich; C0549), the DNA was run in a 1% (w/v) agarose gel (Web Scientific; AGR-500) with a 1-kb DNA ladder (Life Technologies; 10787) for 4 hours at 80 V. The gel was then stained with SYBR Safe for 30 min before ultraviolet visualization (UVP; BioDoc-It Imaging System).
# [3] = test system: trophoblast stem cells (TSCs); experiment: TSC differentiation gene expression (RNA-seq, qRT-PCR); format: cell-based, mouse
# Experimental: Derivation and culture of TSCs were performed as previously described ([34]). Shortly, TSCs were cultured in the absence of feeders in medium supplemented with FGF4 (30 ng/ml; R&D Systems, 235-F4-025/CF), heparin (1.2 μg/ml; Sigma, H3149), and 70% conditional medium (harvested from mitomycin-treated primary mouse embryonic fibroblasts). TSC medium contained RPMI 1640 (BD Biosciences, 354230), 20% ES-qualified fetal bovine serum (Invitrogen), 1% penicillin-streptomycin (Lonza, DE17-602E), 1% L-glutamine (Lonza, BE17-605E), 1% sodium pyruvate (Invitrogen, 11360), and 0.1 mM β-mercaptoethanol. To induce differentiation, TSCs were cultured on feeder-free conditions in TSC medium lacking FGF4 and heparin supplementation.
# RNA was isolated as for the ESC samples.
# RNA-Seq Library synthesis and analysis were performed at the DKFZ sequencing genomics core facility (Heidelberg, Germany). Mapping and bioinformatics analysis were performed using TopHat, EdgeR Gene-E, and HOMER ([35]–[37]). The raw data from the RNA set results are available through Gene Expression Omnibus (GEO) (accession no. GSE65358). Each replicate represents at least 12 million reads, a density sufficient for qualitative analysis of gene expression. The reads were aligned to the mm10 mouse genome, allowing a mismatch of 2%. We used WebGestalt to find affected pathways ([38]).
# [4] = Stability in aqueous solution; format: physicochemical; settings: 37°C, read-out: Half-life in aqueous solutions
# [5] = test system: NCI-60 panel of tumor cell lines; experiment: NCI-60 cell proliferation and survival; format: cell-based; settings: 10 μM inhibitor
# [6] = target: T1, full-length GFP-tagged BRM in U2OS cells (Homo sapiens, UniProt P51531); experiment: Fluorescence recovery after photobleaching (FRAP); format: cell-based
# T1 construct: constructs encoding GFP fused to the N terminus of full-length BRM; expressed in transfected cells; host or cells: U2OS
# T1 sequence (P51531 whole entry, the tested form may be a part): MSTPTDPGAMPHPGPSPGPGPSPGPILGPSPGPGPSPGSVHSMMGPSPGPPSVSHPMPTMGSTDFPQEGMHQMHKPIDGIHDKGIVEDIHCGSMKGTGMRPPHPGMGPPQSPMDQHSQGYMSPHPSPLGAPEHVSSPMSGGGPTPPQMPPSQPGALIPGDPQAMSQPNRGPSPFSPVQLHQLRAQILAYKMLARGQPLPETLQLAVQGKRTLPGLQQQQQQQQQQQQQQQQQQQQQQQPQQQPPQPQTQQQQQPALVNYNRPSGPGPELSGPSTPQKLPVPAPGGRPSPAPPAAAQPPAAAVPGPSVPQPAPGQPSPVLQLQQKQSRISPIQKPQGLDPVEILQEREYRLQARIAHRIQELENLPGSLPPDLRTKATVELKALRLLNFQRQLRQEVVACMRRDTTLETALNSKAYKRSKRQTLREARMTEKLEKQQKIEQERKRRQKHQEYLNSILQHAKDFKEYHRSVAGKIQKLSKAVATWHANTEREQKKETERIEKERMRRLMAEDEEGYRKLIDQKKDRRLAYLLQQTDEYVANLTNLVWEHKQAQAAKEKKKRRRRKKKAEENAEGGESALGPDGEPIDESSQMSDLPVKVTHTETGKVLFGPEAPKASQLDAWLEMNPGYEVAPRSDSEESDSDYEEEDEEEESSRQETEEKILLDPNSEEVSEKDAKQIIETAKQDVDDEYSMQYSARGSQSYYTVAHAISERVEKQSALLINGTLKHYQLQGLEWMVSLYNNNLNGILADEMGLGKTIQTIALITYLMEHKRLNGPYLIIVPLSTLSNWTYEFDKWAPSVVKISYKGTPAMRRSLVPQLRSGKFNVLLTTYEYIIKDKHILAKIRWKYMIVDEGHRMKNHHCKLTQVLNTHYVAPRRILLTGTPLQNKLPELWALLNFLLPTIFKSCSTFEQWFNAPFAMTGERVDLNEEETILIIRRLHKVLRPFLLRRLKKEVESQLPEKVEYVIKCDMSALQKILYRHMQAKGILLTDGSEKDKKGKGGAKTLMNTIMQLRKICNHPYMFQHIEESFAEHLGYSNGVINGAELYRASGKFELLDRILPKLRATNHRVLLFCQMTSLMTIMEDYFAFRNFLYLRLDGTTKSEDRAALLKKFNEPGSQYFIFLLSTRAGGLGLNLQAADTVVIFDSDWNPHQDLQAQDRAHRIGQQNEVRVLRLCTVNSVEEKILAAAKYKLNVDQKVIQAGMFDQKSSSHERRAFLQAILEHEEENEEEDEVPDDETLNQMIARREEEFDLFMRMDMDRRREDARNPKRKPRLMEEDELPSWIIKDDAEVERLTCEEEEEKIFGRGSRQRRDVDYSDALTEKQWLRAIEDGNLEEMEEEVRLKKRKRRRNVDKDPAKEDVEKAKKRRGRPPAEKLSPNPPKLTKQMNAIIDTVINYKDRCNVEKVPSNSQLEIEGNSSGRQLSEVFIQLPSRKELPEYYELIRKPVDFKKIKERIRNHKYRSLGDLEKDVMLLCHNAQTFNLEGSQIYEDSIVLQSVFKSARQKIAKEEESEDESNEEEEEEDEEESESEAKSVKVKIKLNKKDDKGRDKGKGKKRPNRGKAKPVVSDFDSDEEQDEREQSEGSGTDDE
# Experimental: FRAP studies were performed using a protocol modified from previous studies ([24]). In brief, U2OS cells were transfected (FuGENE HD, Roche) with mammalian overexpression constructs encoding GFP fused to the N terminus of full-length BRM. The FRAP and imaging system consisted of a Zeiss LSM 710 laser scanning and control system coupled to an inverted Zeiss Axio Observer.Z1 microscope equipped with a high numerical aperture (1.3) 40× oil immersion objective. Samples were placed in an incubator chamber capable of maintaining temperature and humidity. […] Once an initial scan had been taken, a region of interest corresponding to about 50% of the entire GFP-positive nucleus was empirically selected for bleaching. A time-lapse series was then taken to record GFP recovery using 1% of the power used for bleaching. The image data sets and fluorescence recovery data were exported from ZEN 2009, the microscope control software, into Microsoft Excel to determine the average half-time for full recovery for 10 to 20 cells per treatment point.
# [7] = test system: 102 cellular receptors as well as 30 enzyme assays; experiment: Commercial CEREP screening panel
# BAF BRDs = experiment: Initial library screening for interaction with BAF BRDs; format: binding
# [8] = target: T2, fifth bromodomain of PB1 [PB1(5)] (Homo sapiens, UniProt Q86U86); experiment: Isothermal titration calorimetry (ITC) of SA; format: binding; settings: 15°C, read-out: KD (dissociation constant)
# T2 construct: isothermal titration calorimetry (ITC) with the fifth bromodomain of PB1 [PB1(5)]; made in house
# T2 sequence (Q86U86 653-763 limits assumed): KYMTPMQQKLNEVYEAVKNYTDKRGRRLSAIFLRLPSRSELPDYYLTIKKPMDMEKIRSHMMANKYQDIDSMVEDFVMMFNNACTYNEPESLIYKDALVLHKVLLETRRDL
# Experimental: Experiments were carried out on a VP-ITC microcalorimeter (MicroCal). All experiments were performed at 15°C in 50 mM Hepes (pH 7.5), 150 mM NaCl. The titrations were conducted using an initial injection of 2 μl followed by 34 identical injections of 8 μl. The dilution heats were measured on separate experiments and were subtracted from the titration data. Thermodynamic parameters were calculated using ΔG = ΔH − TΔS = −RTlnKB, where ΔG, ΔH, and ΔS are the changes in free energy, enthalpy, and entropy of binding, respectively. In all cases, a single binding site model was used.
# [9] = test system: 48 members of the human BRD family; experiment: Thermal shift (ΔTm) selectivity screening; format: binding; settings: profiled against 48 BRDs; compounds at 10 μM
# Experimental: Thermal melting experiments were carried out using an Mx3005P Real-Time PCR machine (Stratagene). Proteins were buffered in 10 mM Hepes (pH 7.5), 500 mM NaCl, and assayed in a 96-well plate at a final concentration of 2 μM in 20-μl volume. Compounds were added at a final concentration of 10 μM. SYPRO Orange (Molecular Probes) was added as a fluorescence probe at a dilution of 1:1000. Excitation and emission filters for the SYPRO Orange dye were set to 465 and 590 nm, respectively. The temperature was raised with a step of 3°C/min from 25° to 96°C, and fluorescence readings were taken at each interval.
# [10] = 4 days of differentiation, vs control compound
smiles,measurement,setting,value
"O=C(/C=C/N1C[C@H]2C[C@@H]1CN2c1ccccn1)c1ccccc1O [PFI-3, (E)-1-(2-hydroxyphenyl)-3-((1R,4R)-5-(pyridin-2-yl)-2,5-diazabicyclo[2.2.1]heptan-2-yl)prop-2-en-1-one]",Transcription of stemness genes,"[1]; 1 μM, 1 and 8 days, qRT-PCR",initial up- and subsequent down-regulation of stemness genes
same,Morphological differentiation of ESCs,"[1]; 1 μM, 8 days, stemness-maintaining conditions (LIF), vs PFI-3oMet",led to visible differentiation
same,Gata4 expression,[1]; [10],not significantly altered
same,Nes expression,[1]; [10],increased
same,T (brachyury homolog) transcription,[1]; [10],at the expense of the brachyury homolog T transcription
same,H3K27me3 at Brg1 and Stat3 binding sites,[2],increase of H3K27me3
same,DNA intercalation,supercoiled pBR322 DNA,did not intercalate into DNA
same,"Transcription of TSC differentiation markers (Prl3d1, Tpbpa)","[3]; 2 μM, differentiation (D4), qRT-PCR",marked increase
same,"Levels of Eomes, Brg1, Brm, and Pbrm1/Baf180",[3]; qRT-PCR,not affected
same,Prl7d1 and Tpbpa transcription after washout,[3]; washout of the inhibitor during differentiation,could still be observed after washout of the inhibitor during differentiation of TSCs albeit to a lesser extent
same,half-life,[4],> 168 h
same,Toxicity (cell proliferation and survival),[5],did not result in significant toxicity for any of the cell lines tested
same,Half-recovery time of wild-type GFP-BRM (FRAP),"[6]; 2.5 μM SAHA, compound exposure 1 hour",significantly accelerated the half-recovery time
same,Ability to displace BRM from chromatin after 24 hours,"[6]; exposure 24 hours, 37°C",did not show any loss
same,Interactions in CEREP panel,[7],only interactions against four GPCRs (G protein–coupled receptor) with micromolar affinity
CCOC(=O)Nc1cc(-c2ccc(C)c(NS(C)(=O)=O)c2)nn2c(C)nnc12 [bromosporine],Binding to BAF BRDs,BAF BRDs,did not exhibit any binding
"O=C(O)c1ccccc1O [SA, salicylic acid]",Kd,[8],250 µM
same,Selectivity in temperature shift (ΔTm) assay,[9],good selectivity for BRDs present in BRG1/BRM and PB1
